Results published in the NIST ThermoML archive (doi:10.1016/j.tca.2013.02.022).

Experiment: cn = amount concentration of the nth substance listed, in mol/dm3
Conditions: 298.15 K, 101 kPa, Liquid, Alternating current cell with electrodes

CCn1cc[n+](C)c1.[Br-] [1-ethyl-3-methylimidazolium bromide] + CC#N
Conditions | molar conductivity [S·m2/mol]
c1 = 0.000941 | 0.0155
c1 = 0.001725 | 0.0152
c1 = 0.002388 | 0.015
c1 = 0.002957 | 0.0149
c1 = 0.003994 | 0.0146
c1 = 0.0046 | 0.0145
c1 = 0.005175 | 0.0144
c1 = 0.005645 | 0.0143
c1 = 0.006038 | 0.0143
c1 = 0.006369 | 0.0142
c1 = 0.006654 | 0.0142
c1 = 0.007011 | 0.0141
c1 = 0.007656 | 0.014
c1 = 0.007998 | 0.0139
c1 = 0.008433 | 0.0139

CCn1cc[n+](C)c1.[Br-] [1-ethyl-3-methylimidazolium bromide] + CC(=O)N(C)C
Conditions | molar conductivity [S·m2/mol]
c1 = 0.000995 | 0.00429
c1 = 0.001858 | 0.004
c1 = 0.002527 | 0.00377
c1 = 0.003129 | 0.00364
c1 = 0.003697 | 0.00354
c1 = 0.004106 | 0.00348
c1 = 0.004509 | 0.00335
c1 = 0.005187 | 0.0032
c1 = 0.005736 | 0.00309
c1 = 0.005973 | 0.00305
c1 = 0.006388 | 0.003
c1 = 0.0073 | 0.00283
c1 = 0.007821 | 0.00273
c1 = 0.008279 | 0.0027
c1 = 0.008995 | 0.00254

CCn1cc[n+](C)c1.[Br-] [1-ethyl-3-methylimidazolium bromide] + CN(C)C=O
Conditions | molar conductivity [S·m2/mol]
c1 = 0.001828 | 0.00732
c1 = 0.002531 | 0.0071
c1 = 0.003133 | 0.0069
c1 = 0.003655 | 0.00675
c1 = 0.004225 | 0.00667
c1 = 0.004874 | 0.00652
c1 = 0.005483 | 0.00643
c1 = 0.005981 | 0.0063
c1 = 0.006397 | 0.00622
c1 = 0.006905 | 0.00616
c1 = 0.007429 | 0.0061
c1 = 0.007833 | 0.00604
c1 = 0.008291 | 0.00593
c1 = 0.008681 | 0.00587
c1 = 0.009008 | 0.00584

CCn1cc[n+](C)c1.[Br-] [1-ethyl-3-methylimidazolium bromide] + CO
Conditions | molar conductivity [S·m2/mol]
c1 = 0.001828 | 0.00814
c1 = 0.002264 | 0.00804
c1 = 0.002683 | 0.00795
c1 = 0.003262 | 0.00784
c1 = 0.003528 | 0.00779
c1 = 0.004007 | 0.00771
c1 = 0.004303 | 0.00765
c1 = 0.004622 | 0.0076
c1 = 0.004858 | 0.00757
c1 = 0.005093 | 0.00753
c1 = 0.005282 | 0.0075
c1 = 0.005565 | 0.00746
c1 = 0.005822 | 0.00743
c1 = 0.006122 | 0.00739
c1 = 0.006338 | 0.00736

CCn1cc[n+](C)c1.[Br-] [1-ethyl-3-methylimidazolium bromide] + C[S+](C)[O-]
Conditions | molar conductivity [S·m2/mol]
c1 = 0.002105 | 0.00246
c1 = 0.003858 | 0.00225
c1 = 0.005342 | 0.00209
c1 = 0.006614 | 0.00198
c1 = 0.007717 | 0.0019
c1 = 0.008681 | 0.00182
c1 = 0.009532 | 0.00177
c1 = 0.01097 | 0.00166
c1 = 0.01213 | 0.00158
c1 = 0.0135 | 0.0015
c1 = 0.01458 | 0.00144
c1 = 0.01614 | 0.00136
c1 = 0.01721 | 0.0013
c1 = 0.01812 | 0.00126
c1 = 0.01902 | 0.00122
